Columns and labels:
Hs-578T = test: In vitro growth inhibition against breast cancer HS 578T cell line was reported.; format: functional; settings: Homo sapiens
MCF7 = test: In vitro total growth inhibition against breast cancer MCF 7 cell lines was reported.; format: functional; settings: Homo sapiens, read-out: Log TGI (converted)
MDA-N = test: In vitro total growth inhibition against breast cancer MDA-N cell lines was reported.; format: functional; settings: Homo sapiens, read-out: Log TGI (converted)
NCI/ADR-RES = test: In vitro total growth inhibition against breast cancer NCI/ADR-RES cell lines was reported.; format: functional; settings: Homo sapiens, read-out: Log TGI (converted)
T47D = test: In vitro growth inhibition against breast cancer […] cell line was reported.; format: functional; settings: Homo sapiens
COLO 205 = test: Log of molar concentration leading to 50% cell death against colon cancer COLO 205 cell line was reported; format: functional; settings: Homo sapiens, read-out: Log LC50 (the source's name) (converted)
HCC 2998 = test: In vitro total growth inhibition against colon cancer HCC2998 cell lines was reported.; format: functional; settings: Homo sapiens, read-out: Log TGI (converted)
HCT-116 = test: Log of molar concentration leading to 50% cell death against colon cancer HCT116 cell line was reported; format: functional; settings: Homo sapiens, read-out: Log LC50 (the source's name) (converted)
SF-295 = test: In vitro total growth inhibition against CNS cancer SF-295 cell lines was reported.; format: functional; settings: Homo sapiens, read-out: Log TGI (converted)
SF-539 = test: In vitro total growth inhibition against CNS cancer SF-539 cell lines was reported.; format: functional; settings: Homo sapiens, read-out: Log TGI (converted)
SNB-75 [1] = test: In vitro growth inhibition against CNS cancer SNB-75 cell line was reported.; format: functional; settings: Homo sapiens
SNB-75 [2] = test: In vitro total growth inhibition against CNS cancer SNB-75 cell lines was reported.; format: functional; settings: Homo sapiens, read-out: Log TGI (converted)
SF-268 = test: In vitro growth inhibition against CNS cancer SF-268 cell line was reported.; format: functional; settings: Homo sapiens
HCT-15 = test: In vitro total growth inhibition against colon cancer HCT-15 cell lines was reported.; format: functional; settings: Homo sapiens, read-out: Log TGI (converted)
HT-29 [3] = test: In vitro total growth inhibition against colon cancer HT-29 cell lines was reported.; format: functional; settings: Homo sapiens, read-out: Log TGI (converted)
KM12 = test: In vitro growth inhibition against colon cancer KM12 cell line was reported.; format: functional; settings: Homo sapiens
SW-620 = test: In vitro growth inhibition against colon cancer SW620 cell line was reported.; format: functional; settings: Homo sapiens
Tumor Cell line [4] = test: In vitro inhibition of 50% cell growth was reported as log of molar concentration for 60 cell lines.; format: functional; settings: Homo sapiens
Tumor Cell line [5] = test: In vitro total growth inhibition for 50 cell lines was reported as log of molar concentration; format: functional, Homo sapiens
K562 = test: In vitro total growth inhibition against leukemia K-562 cell lines was reported.; format: functional; settings: Homo sapiens, read-out: Log TGI (converted)
CCRF-CEM = test: In vitro total growth inhibition against leukemia CCRF cell lines was reported.; format: functional; settings: Homo sapiens, read-out: Log TGI (converted)
HL-60 [6] = test: In vitro growth inhibition against leukemia HL-60(TB) cell line was reported.; format: functional; settings: Homo sapiens
HL-60 [7] = test: In vitro total growth inhibition against leukemia HL-60(TB) cell lines was reported.; format: functional; settings: Homo sapiens, read-out: Log TGI (converted)
MOLT-4 [8] = test: In vitro growth inhibition against leukemia MOLT-4 cell line was reported.; format: functional; settings: Homo sapiens
MOLT-4 [9] = test: In vitro total growth inhibition against leukemia MOLT-4 cell lines was reported.; format: functional; settings: Homo sapiens, read-out: Log TGI (converted)
SK-MEL-2 = test: In vitro growth inhibition against melanoma SK-MEL-2 cell line was reported.; format: functional; settings: Homo sapiens
UACC-62 [10] = test: In vitro growth inhibition against melanoma UACC-62 cell line was reported.; format: functional; settings: Homo sapiens
HOP-62 = test: In vitro total growth inhibition against non-small-cell lung cancer HOP-62 cell lines was reported.; format: functional; settings: Homo sapiens, read-out: Log TGI (converted)
NCI-H226 [11] = test: In vitro total growth inhibition against non-small-cell lung cancer NCI-H226 cell lines was reported.; format: functional; settings: Homo sapiens, read-out: Log TGI (converted)
NCI-H322M = test: Log of molar concentration leading to 50% cell death against non-small-cell lung cancer NCI-H322M cell line was reported; format: functional; settings: Homo sapiens, read-out: Log LC50 (the source's name) (converted)
OVCAR-4 [12] = test: In vitro growth inhibition against ovarian cancer OVCAR-4 cell line was reported.; format: functional; settings: Homo sapiens
OVCAR-5 = test: In vitro total growth inhibition against ovarian cancer OVCAR-5 cell lines was reported.; format: functional; settings: Homo sapiens, read-out: Log TGI (converted)
OVCAR-8 [13] = test: In vitro growth inhibition against ovarian cancer OVCAR-8 cell line was reported.; format: functional; settings: Homo sapiens
OVCAR-8 [14] = test: In vitro total growth inhibition against ovarian cancer OVCAR-8 cell lines was reported.; format: functional; settings: Homo sapiens, read-out: Log TGI (converted)
DU-145 [15] = test: In vitro growth inhibition against prostate cancer […] cell line was reported.; format: functional; settings: Homo sapiens
CAKI-1 = test: In vitro growth inhibition against renal cancer CAKI-1 cell line was reported.; format: functional; settings: Homo sapiens
RXF 393 [16] = test: In vitro growth inhibition against renal cancer RXF 393 cell line was reported.; format: functional; settings: Homo sapiens
RXF 393 [17] = test: In vitro total growth inhibition against renal cancer RXF 393 cell lines was reported.; format: functional; settings: Homo sapiens, read-out: Log TGI (converted)
SN12C = test: In vitro growth inhibition against renal cancer SN12C cell line was reported.; format: functional; settings: Homo sapiens
TK-10 [18] = test: In vitro growth inhibition against renal cancer TK-10 cell line was reported.; format: functional; settings: Homo sapiens
TK-10 [19] = test: In vitro total growth inhibition against renal cancer TK-10 cell lines was reported.; format: functional; settings: Homo sapiens, read-out: Log TGI (converted)
UO-31 [20] = test: In vitro growth inhibition against renal cancer UO-31 cell line was reported.; format: functional; settings: Homo sapiens
HL-60 [21] = test: Log of molar concentration leading to 50% cell death against leukemia HL-60(TB) cell line was reported; format: functional; settings: Homo sapiens, read-out: Log LC50 (the source's name) (converted)
OVCAR-4 [22] = test: Log of molar concentration leading to 50% cell death against ovarian cancer OVCAR-4 cell line was reported; format: functional; settings: Homo sapiens, read-out: Log LC50 (the source's name) (converted)
MDA-MB-231 = test: Log of molar concentration leading to 50% cell death against breast cancer MDA-MB-231/ATCC cell line was reported; format: functional; settings: Homo sapiens, read-out: Log LC50 (the source's name) (converted)
UACC-62 [23] = test: In vitro total growth inhibition against melanoma UACC-62 cell lines was reported.; format: functional; settings: Homo sapiens, read-out: Log TGI (converted)
M14 = test: Log of molar concentration leading to 50% cell death against melanoma M14 cell line was reported; format: functional; settings: Homo sapiens, read-out: Log LC50 (the source's name) (converted)
SK-MEL-5 = test: Log of molar concentration leading to 50% cell death against melanoma SK-MEL-5 cell line was reported; format: functional; settings: Homo sapiens, read-out: Log LC50 (the source's name) (converted)
DU-145 [24] = test: Log of molar concentration leading to 50% cell death against prostate cancer […] cell line was reported; format: functional; settings: Homo sapiens, read-out: Log LC50 (the source's name) (converted)
NCI-H46 = test: In vitro growth inhibition against non-small-cell lung cancer […] cell line was reported.; format: functional; settings: Homo sapiens
NCI-H226 [25] = test: In vitro growth inhibition against non-small-cell lung cancer NCI-H226 cell line was reported.; format: functional; settings: Homo sapiens
TK-10 [26] = test: Log of molar concentration leading to 50% cell death against renal cancer TK-10 cell line was reported; format: functional; settings: Homo sapiens, read-out: Log LC50 (the source's name) (converted)
U-251 = test: Log of molar concentration leading to 50% cell death against CNS cancer U251 cell line was reported; format: functional; settings: Homo sapiens, read-out: Log LC50 (the source's name) (converted)
OVCAR-3 = test: In vitro growth inhibition against ovarian cancer OVCAR-3 cell line was reported.; format: functional; settings: Homo sapiens
ACHN = test: In vitro growth inhibition against renal cancer ACHN cell line was reported.; format: functional; settings: Homo sapiens
RPMI-8226 = test: In vitro growth inhibition against leukemia […] cell line was reported.; format: functional; settings: Homo sapiens
LOX IMVI = test: In vitro growth inhibition against melanoma LOX IMVI cell line was reported.; format: functional; settings: Homo sapiens
HT-29 [27] = test: In vitro growth inhibition against colon cancer HT-29 cell line was reported.; format: functional; settings: Homo sapiens
UO-31 [28] = test: In vitro total growth inhibition against renal cancer UO-31 cell lines was reported.; format: functional; settings: Homo sapiens, read-out: Log TGI (converted)
A498 = test: In vitro total growth inhibition against renal cancer A-498 cell lines was reported.; format: functional; settings: Homo sapiens, read-out: Log TGI (converted)
OVCAR-8 [29] = test: Log of molar concentration leading to 50% cell death against ovarian cancer OVCAR-8 cell line was reported; format: functional; settings: Homo sapiens, read-out: Log LC50 (the source's name) (converted)

## O=C(Nc1cccc2nsnc12)c1cc2c(cc1Cl)Sc1nccn1S2(=O)=O
Hs-578T
  GI50: 4.17 µM
MCF7
  TGI: 3.39 µM
MDA-N
  TGI: 27.5 µM
NCI/ADR-RES
  TGI: 38.9 µM
T47D
  GI50: 1.7 µM
COLO 205
  CC50: 56.2 µM
HCC 2998
  TGI: 11.7 µM
HCT-116
  CC50: 12.9 µM
SF-295
  TGI: 25.1 µM
SF-539
  TGI: 4.9 µM
SNB-75 [1]
  GI50: 3.89 µM
SNB-75 [2]
  TGI: 26.9 µM
SF-268
  GI50: 3.39 µM
HCT-15
  TGI: 21.4 µM
HT-29 [3]
  TGI: 5.25 µM
KM12
  GI50: 2.04 µM
SW-620
  GI50: 12 µM
Tumor Cell line [4]
  GI50: 45.7 µM
Tumor Cell line [5]
  Log GTI: -4.31
K562
  TGI: 20 µM
CCRF-CEM
  TGI: 13.5 µM
HL-60 [6]
  GI50: 1.86 µM
HL-60 [7]
  TGI: 3.72 µM
MOLT-4 [8]
  GI50: 2.75 µM
MOLT-4 [9]
  TGI: 9.33 µM
SK-MEL-2
  GI50: 10 µM
UACC-62 [10]
  GI50: 5.37 µM
HOP-62
  TGI: 3.8 µM
NCI-H226 [11]
  TGI: 33.1 µM
NCI-H322M
  CC50: 5.75 µM
OVCAR-4 [12]
  GI50: 2.75 µM
OVCAR-5
  TGI: 83.2 µM
OVCAR-8 [13]
  GI50: 2.34 µM
OVCAR-8 [14]
  TGI: 7.08 µM
DU-145 [15]
  GI50: 1.74 µM
CAKI-1
  GI50: 4.79 µM
RXF 393 [16]
  GI50: 4.68 µM
RXF 393 [17]
  TGI: 28.8 µM
SN12C
  GI50: 15.1 µM
TK-10 [18]
  GI50: 10.5 µM
TK-10 [19]
  TGI: 22.9 µM
UO-31 [20]
  GI50: 2.09 µM
HL-60 [21]
  CC50: 7.41 µM
OVCAR-4 [22]
  CC50: 87.1 µM
MDA-MB-231
  CC50: 53.7 µM
UACC-62 [23]
  TGI: 17.8 µM
M14
  CC50: 69.2 µM
SK-MEL-5
  CC50: 72.4 µM
DU-145 [24]
  CC50: 6.03 µM
NCI-H46
  GI50: 2.04 µM
NCI-H226 [25]
  GI50: 19.1 µM
TK-10 [26]
  CC50: 50.1 µM
U-251
  CC50: 44.7 µM
OVCAR-3
  GI50: 1.78 µM
ACHN
  GI50: 12.6 µM
RPMI-8226
  GI50: 2.09 µM
LOX IMVI
  GI50: 5.25 µM
HT-29 [27]
  GI50: 2.24 µM
UO-31 [28]
  TGI: 4.37 µM
A498
  TGI: 26.3 µM
OVCAR-8 [29]
  CC50: 38 µM

Reference: ChEMBL document CHEMBL1135808, “A new type of mixed anhydride and its applications to the synthesis of 7-substituted 8-chloro-5,5-dioxoimidazo[1,2-b][1,4,2]benzodithiazines with in vitro antitumor activity” (2002)
